Test results published in patent publication US12448399B2, “Cereblon-based KRAS degrading PROTACs and uses related thereto” (Arvinas Operations, Inc., priority 2023, dated 2025).

Molecular target: T1, KRas-G12D (Homo sapiens, UniProt P01116, G12D)
T1 construct: insert the HiBiT tag onto the N-terminus of one or more of the endogenous KRas alleles; host or cells: AsPC-1 HiBiT-KRasG12D knock-in clone (one tagged allele, two untagged KRasG12D alleles)
Experiment: HiBiT Degradation Assay (G12D), AsPC-1 HiBiT-KRasG12D cells, 24 hr
Type: cell-based
Details: for Dmax: ASPC1, AsPC-1 cells, maximum degradation observed; for DC50: AsPC-1 cells
In short: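 AsPC-1 cells with CRISPR N-terminal HiBiT knock-in on one endogenous KRasG12D allele, treated 24 hr at 37° C with compound titrations in 0.5% DMSO. Lytic HiBiT luminescence normalized to DMSO, fitted to a 4-parameter model for DC50 and Dmax. Parallel alamar blue (4 hr) checked viability.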

T1 sequence (P01116 1-188 isoform P01116-2 G12D): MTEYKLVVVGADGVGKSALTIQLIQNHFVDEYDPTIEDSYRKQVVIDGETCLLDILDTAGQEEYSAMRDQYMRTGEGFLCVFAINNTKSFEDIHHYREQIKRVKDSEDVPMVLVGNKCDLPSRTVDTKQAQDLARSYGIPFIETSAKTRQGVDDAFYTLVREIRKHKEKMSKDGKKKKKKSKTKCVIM

For `CCc1c(F)ccc2cc(O)cc(-c3ncc4c(N5CC6CCC(C5)N6)nc(OCCN5CCC(F)(CN6CCN(CC7CCN(c8ccc9c(c8)n(C)c(=O)n9C8CCC(=O)NC8=O)CC7)CC6)CC5)nc4c3F)c12` (stereo not shown) [Compound 181, 3-{5-[4-({4-[(1-{2-[(4-{3,8-diazabicyclo[3.2.1]octan-3-yl}-7-(8-ethyl-7-fluoro-3-hydroxynaphthalen-1-yl)-8-fluoropyrido[4,3-d]pyrimidin-2-yl)oxy]ethyl}-4-fluoropiperidin-4-yl)methyl]piperazin-1-yl}methyl)piperidin-1-yl]-3-methyl-2-oxo-2,3-dihydro-1H-1,3-benzodiazol-1-yl}piperidine-2,6-dione], the Dmax was > 70% and the DC50 was < 5.1 µM.
`CCc1c(F)ccc2cc(O)cc(-c3ncc4c(N5CC6CCC(C5)N6)nc(OCCN5CCC(F)(CC6CCN(CC7CCN(c8ccc9c(c8)n(C)c(=O)n9C8CCC(=O)NC8=O)CC7)CC6)CC5)nc4c3F)c12` (stereo not shown) [Compound 182, 3-{5-[4-({4-[(1-{2-[(4-{3,8-diazabicyclo[3.2.1]octan-3-yl}-7-(8-ethyl-7-fluoro-3-hydroxynaphthalen-1-yl)-8-fluoropyrido[4,3-d]pyrimidin-2-yl)oxy]ethyl}-4-fluoropiperidin-4-yl)methyl]piperidin-1-yl}methyl)piperidin-1-yl]-3-methyl-2-oxo-2,3-dihydro-1H-1,3-benzodiazol-1-yl}piperidine-2,6-dione] was tested, and the Dmax was > 70% and the DC50 was < 5.1 µM.
In the case of `C#Cc1c(F)ccc2cc(O)cc(-c3ncc4c(N5CC6CCC(C5)N6)nc(OCCN5CCC(F)(CN6CCC(CC7CCN(c8ccc9c(c8)n(C)c(=O)n9C8CCC(=O)NC8=O)CC7)CC6)CC5)nc4c3F)c12` (stereo not shown) [Compound 183, 3-{5-[4-({1-[(1-{2-[(4-{3,8-diazabicyclo[3.2.1]octan-3-yl}-7-(8-ethynyl-7-fluoro-3-hydroxynaphthalen-1-yl)-8-fluoropyrido[4,3-d]pyrimidin-2-yl)oxy]ethyl}-4-fluoropiperidin-4-yl)methyl]piperidin-4-yl}methyl)piperidin-1-yl]-3-methyl-2-oxo-2,3-dihydro-1H-1,3-benzodiazol-1-yl}piperidine-2,6-dione], the Dmax is reported as > 70% and the DC50 is reported as < 5.1 µM.
With `C#Cc1c(F)ccc2cc(O)cc(-c3ncc4c(N5CC6CCC(C5)N6)nc(OC[C@@H](C)N5CCC(CC6CCN(CC7CCN(c8ccc9c(c8)n(C(C)C)c(=O)n9C8CCC(=O)NC8=O)CC7)CC6)CC5)nc4c3F)c12` (stereo partly drawn) [Compound 184, 3-[5-(4-{[4-({1-[(2R)-1-[(4-{3,8-diazabicyclo[3.2.1]octan-3-yl}-7-(8-ethynyl-7-fluoro-3-hydroxynaphthalen-1-yl)-8-fluoropyrido[4,3-d]pyrimidin-2-yl)oxy]propan-2-yl]piperidin-4-yl}methyl)piperidin-1-yl]methyl}piperidin-1-yl)-2-oxo-3-(propan-2-yl)-2,3-dihydro-1H-1,3-benzodiazol-1-yl]piperidine-2,6-dione] the Dmax was > 70% and the DC50 was < 5.1 µM.
`C#Cc1c(F)ccc2cc(O)cc(-c3ncc4c(N5CC6CCC(C5)N6)nc(OC[C@@H](C)N5CCC(CC6CCN(CC7CCN(c8ccc9c(c8F)CN(C8CCC(=O)NC8=O)C9=O)CC7)CC6)CC5)nc4c3F)c12` (stereo partly drawn) [Compound 185, 3-[5-(4-{[4-({1-[(2R)-1-[(4-{3,8-diazabicyclo[3.2.1]octan-3-yl}-7-(8-ethynyl-7-fluoro-3-hydroxynaphthalen-1-yl)-8-fluoropyrido[4,3-d]pyrimidin-2-yl)oxy]propan-2-yl]piperidin-4-yl}methyl)piperidin-1-yl]methyl}piperidin-1-yl)-4-fluoro-1-oxo-2,3-dihydro-1H-isoindol-2-yl]piperidine-2,6-dione] was tested, and the Dmax was > 70% and the DC50 was < 5.1 µM.
For `C#Cc1c(F)ccc2cc(O)cc(-c3ncc4c(N5CC6CCC(C5)N6)nc(OCC5(CN6CCN(CC7CCN(c8ccc9c(c8Cl)CN(C8CCC(=O)NC8=O)C9=O)CC7)CC6)CC5)nc4c3F)c12` (stereo not shown) [Compound 186, 3-{4-chloro-5-[4-({4-[(1-{[(4-{3,8-diazabicyclo[3.2.1]octan-3-yl}-7-(8-ethynyl-7-fluoro-3-hydroxynaphthalen-1-yl)-8-fluoropyrido[4,3-d]pyrimidin-2-yl)oxy]methyl}cyclopropyl)methyl]piperazin-1-yl}methyl)piperidin-1-yl]-1-oxo-2,3-dihydro-1H-isoindol-2-yl}piperidine-2,6-dione], the Dmax was > 70% and the DC50 was < 5.1 µM.
In the case of `C#Cc1c(F)ccc2cc(O)cc(-c3ncc4c(N5CC6CCC(C5)N6)nc(OCC5(CN6CCC(CN7CCN(c8ccc9c(c8Cl)CN(C8CCC(=O)NC8=O)C9=O)CC7)CC6)CC5)nc4c3F)c12` (stereo not shown) [Compound 187, 3-{4-chloro-5-[4-({1-[(1-{[(4-{3,8-diazabicyclo[3.2.1]octan-3-yl}-7-(8-ethynyl-7-fluoro-3-hydroxynaphthalen-1-yl)-8-fluoropyrido[4,3-d]pyrimidin-2-yl)oxy]methyl}cyclopropyl)methyl]piperidin-4-yl}methyl)piperazin-1-yl]-1-oxo-2,3-dihydro-1H-isoindol-2-yl}piperidine-2,6-dione], the Dmax is reported as > 70% and the DC50 is reported as < 5.1 µM.
With `C#Cc1c(F)ccc2cc(O)cc(-c3ncc4c(N5CC6CCC(C5)N6)nc(OCC5(CN6CCN(CC7CCN(c8ccc9c(c8)n(C)c(=O)n9C8CCC(=O)NC8=O)CC7)CC6)CC5)nc4c3F)c12` (stereo not shown) [Compound 188, 3-{5-[4-({4-[(1-{[(4-{3,8-diazabicyclo[3.2.1]octan-3-yl}-7-(8-ethynyl-7-fluoro-3-hydroxynaphthalen-1-yl)-8-fluoropyrido[4,3-d]pyrimidin-2-yl)oxy]methyl}cyclopropyl)methyl]piperazin-1-yl}methyl)piperidin-1-yl]-3-methyl-2-oxo-2,3-dihydro-1H-1,3-benzodiazol-1-yl}piperidine-2,6-dione] the Dmax was > 70% and the DC50 was < 5.1 µM.
`C#Cc1c(F)ccc2cc(O)cc(-c3ncc4c(N5CC6CCC(C5)N6)nc(OCC5(CN6CCC(CN7CCN(c8ccc9c(c8)n(C)c(=O)n9C8CCC(=O)NC8=O)CC7)CC6)CC5)nc4c3F)c12` (stereo not shown) [Compound 189, 3-{5-[4-({1-[(1-{[(4-{3,8-diazabicyclo[3.2.1]octan-3-yl}-7-(8-ethynyl-7-fluoro-3-hydroxynaphthalen-1-yl)-8-fluoropyrido[4,3-d]pyrimidin-2-yl)oxy]methyl}cyclopropyl)methyl]piperidin-4-yl}methyl)piperazin-1-yl]-3-methyl-2-oxo-2,3-dihydro-1H-1,3-benzodiazol-1-yl}piperidine-2,6-dione] was tested, and the Dmax was > 70% and the DC50 was < 5.1 µM.
With `C#Cc1c(F)ccc2cc(O)cc(-c3ncc4c(N5CC6CCC(C5)N6)nc(OCC5(CN6CCC(CC7CCN(c8ccc9c(c8Cl)CN(C8CCC(=O)NC8=O)C9=O)CC7)CC6)CC5)nc4c3F)c12` (stereo not shown) [Compound 190, 3-{4-chloro-5-[4-({1-[(1-{[(4-{3,8-diazabicyclo[3.2.1]octan-3-yl}-7-(8-ethynyl-7-fluoro-3-hydroxynaphthalen-1-yl)-8-fluoropyrido[4,3-d]pyrimidin-2-yl)oxy]methyl}cyclopropyl)methyl]piperidin-4-yl}methyl)piperidin-1-yl]-1-oxo-2,3-dihydro-1H-isoindol-2-yl}piperidine-2,6-dione] the Dmax was > 70% and the DC50 was < 5.1 µM.
`C#Cc1c(F)ccc2cc(O)cc(-c3ncc4c(N5CC6CCC(C5)N6)nc(OCC5(CN6CCC(CC7CCN(c8ccc9c(c8)n(C(C)C)c(=O)n9C8CCC(=O)NC8=O)CC7)CC6)CC5)nc4c3F)c12` (stereo not shown) [Compound 191, 3-{5-[4-({1-[(1-{[(4-{3,8-diazabicyclo[3.2.1]octan-3-yl}-7-(8-ethynyl-7-fluoro-3-hydroxynaphthalen-1-yl)-8-fluoropyrido[4,3-d]pyrimidin-2-yl)oxy]methyl}cyclopropyl)methyl]piperidin-4-yl}methyl)piperidin-1-yl]-2-oxo-3-(propan-2-yl)-2,3-dihydro-1H-1,3-benzodiazol-1-yl}piperidine-2,6-dione] was tested, and the Dmax was > 70% and the DC50 was < 5.1 µM.
With `C#Cc1c(F)ccc2cc(O)cc(-c3ncc4c(N5CC6CCC(C5)N6)nc(OCC5(CN6CCC(CC7CCN(c8ccc9c(c8F)CN(C8CCC(=O)NC8=O)C9=O)CC7)CC6)CC5)nc4c3F)c12` (stereo not shown) [Compound 192, 3-{5-[4-({1-[(1-{[(4-{3,8-diazabicyclo[3.2.1]octan-3-yl}-7-(8-ethynyl-7-fluoro-3-hydroxynaphthalen-1-yl)-8-fluoropyrido[4,3-d]pyrimidin-2-yl)oxy]methyl}cyclopropyl)methyl]piperidin-4-yl}methyl)piperidin-1-yl]-4-fluoro-1-oxo-2,3-dihydro-1H-isoindol-2-yl}piperidine-2,6-dione] the Dmax was > 70% and the DC50 was < 5.1 µM.
`C#Cc1c(F)ccc2cc(O)cc(-c3ncc4c(N5CC6CCC(C5)N6)nc(OCC5(CN6CCC7(CCN(CC8CCN(c9ccc%10c(c9)n(C)c(=O)n%10C9CCC(=O)NC9=O)CC8)CC7)CC6)CC5)nc4c3F)c12` (stereo not shown) [Compound 193, 3-[5-[4-[[3-[[1-[[4-(3,8-diazabicyclo[3.2.1]octan-3-yl)-7-(8-ethynyl-7-fluoro-3-hydroxy-1-naphthyl)-8-fluoro-pyrido[4,3-d]pyrimidin-2-yl]oxymethyl]cyclopropyl]methyl]-3,9-diazaspiro[5.5]undecan-9-yl]methyl]-1-piperidyl]-3-methyl-2-oxo-benzimidazol-1-yl]piperidine-2,6-dione] was tested, and the Dmax was > 70% and the DC50 was < 5.1 µM.
`C#Cc1c(F)ccc2cc(O)cc(-c3ncc4c(N5CC6CCC(C5)N6)nc(OC[C@H](C)N5CCC(CC6CCN(CC7CCN(c8ccc9c(c8F)CN(C8CCC(=O)NC8=O)C9=O)CC7)CC6)CC5)nc4c3F)c12` (stereo partly drawn) [Compound 194, 3-[5-[4-[[4-[[1-[(1S)-2-[4-(3,8-diazabicyclo[3.2.1]octan-3-yl)-7-(8-ethynyl-7-fluoro-3-hydroxy-1-naphthyl)-8-fluoro-pyrido[4,3-d]pyrimidin-2-yl]oxy-1-methyl-ethyl]-4-piperidyl]methyl]-1-piperidyl]methyl]-1-piperidyl]-4-fluoro-1-oxo-isoindolin-2-yl]piperidine-2,6-dione] was tested, and the Dmax was > 70% and the DC50 was < 5.1 µM.
